Tests used:
[1] = test system: platelet aggregation provoked by PAF (washed rabbit platelets); experiment: Anti-PAF activity (inhibition of PAF-provoked platelet aggregation in washed platelets, nephelometry); type: cell-based; conditions: Oryctolagus cuniculus, PAF 30 ng/ml, read-out: Inhibition rate PAF
Method: (a) Preparation of washed platelet suspension (hereinafter referred to as W.P.)
(§1) A blood sample was collected from a carotid artery of a male rabbit weighing 2.5 kg, while adding thereto one volume of a 3.13% sodium citrate solution per 9 volumes of blood as a […]. The resulting blood was centrifuged at 200 xg for 20 minutes to separate out platelet-rich plasma (hereinafter referred to as PRP). This PRP was centrifuged at 1,000 xg for 15 minutes to separate the platelets from the plasma. The deposited platelets were washed twice with a Tyrode solution (Tyrode-Ca^++), from which Ca^++ had been removed and to which 1% bovine serum albumin (BSA) had been added, such that 9×10^5 platelets per μl were finally suspended in the Tyrode solution.
(b) Preparation of specimens and PAF
Specimens were dissolved or suspended in a physiological saline. PAF was dissolved in a Tyrode solution containing 1% BSA. PAF synthesized from D-mannitol in accordance with a method disclosed by J. J. Godfroid et al was used (FEBS Letters 116, 161-164, 1980).
(c) Measurement of platelet aggregation
(§2) Platelet aggregation measurements were conducted according to nephelometry described by Born et al using a platelet aggregation meter manufactured by Schenko Co. Specimen solutions having various concentrations of test compounds and 0.25 ml of W.P. were subjected to preincubation at 37° C. for 4 minutes, and then PAF was added thereto to give a final PAF concentration of 30 ng/ml to provoke platelet aggregation. The transmittance of the W.P. before aggregation, that is, before the addition of the aggregation provoking agent, was rated as 0, and the transmittance of the Tyrode solution was rated as 100. After the addition of the PAF solution to the W.P., light transmittance increased as aggregation proceeded. The value of the light transmittance at the time when the aggregation had proceeded to a maximum was rated as the maximum aggregation (hereinafter referred to as MA) which was used as an index of the degree of aggregation.
(§3) The inhibition rate was calculated according to the following equation. The aggregation in a W.P.-containing physiological saline solution free of test compound, as a control, was rated as 0% aggregation inhibition. [formula] wherein M.A. Control: maximum aggregation after platelet aggregation in PAF was provoked, after the addition of physiological saline.
M.A. Sample: maximum aggregation after platelet aggregation in PAF was provoked, after the addition of the test compound.

[2] = test system: platelet aggregation provoked by bovine thrombin (washed rabbit platelets); experiment: Antithrombic activity (inhibition of thrombin-provoked platelet aggregation); type: cell-based; conditions: Oryctolagus cuniculus, bovine thrombin 0.2 units/ml, read-out: Inhibition rate Thrombin (%)
Method: as §1, §2, §3
(2) Antithrombic activity
The measurement of the antithrombic activity was conducted in the same manner as described above, except that bovine thrombin at a final concentration of 0.2 units/ml was used as the platelet aggregation provoking agent in place of PAF.

| Compound | inhibition at 50 µM [1] [%] | inhibition at 50 µM [2] [%] | inhibition at 20 µM [1] [%] | inhibition at 20 µM [2] [%] |
| --- | --- | --- | --- | --- |
| CC(C)=CCC/C(C)=C/CC/C(C)=C/CC/C(C)=C/C(=O)N(CCO)CCO | 76.4 |  |  |  |
| CC(C)=CCC/C(C)=C/CCC(C)CC(=O)NCCO (centres unmarked) | 31.4 |  |  |  |
| CC(C)=CCC/C(C)=C/CC/C(C)=C/CC/C(C)=C/CC/C(C)=C/C(=O)NCCO | 22.7 |  |  |  |
| CC(C)=CCC/C(C)=C/CC/C(C)=C/C(=O)NCCO | 18.7 |  |  |  |
| CC(C)=CCC/C(C)=C/CC/C(C)=C/CC/C(C)=C/C(=O)N1CCCC(O)C1 (centres unmarked) | 27.4 | 19.2 |  |  |
| CC(C)=CCC/C(C)=C/CC/C(C)=C/CC/C(C)=C/C(=O)N1CCCCC1CO (centres unmarked) | 34.4 | 27.4 |  |  |
| CCN1CCCC(NC(=O)/C=C(\C)CC/C=C(\C)CC/C=C(\C)CCC=C(C)C)C1 (centres unmarked) | 80.3 | 24.2 |  |  |
| CC(C)CCCC(C)Cc1ccc(C(=O)NCCO)cc1 (centres unmarked) |  |  | 57.8 |  |
| CC(C)CCCC(C)Cc1ccc(C(=O)N(CCN(C)C)CCN(C)C)cc1 (centres unmarked) |  |  | 59.4 |  |
| CC(C)CCCC(C)CCCc1ccc(C(C)CC(=O)N(CCN(C)C)CCN(C)C)cc1 (centres unmarked) | 82.6 |  | 57.8 |  |
| CC(=CC(=O)NCCO)c1ccc(CCCC(C)CCCC(C)C)cc1 (centres unmarked) |  |  | 55.9 |  |
| CC(=CC(=O)N(CCN(C)C)CCN(C)C)c1ccc(CCCC(C)CCCC(C)C)cc1 (centres unmarked) | 82.2 |  | 63.2 |  |
| CC(C)CCCC(C)CCCC(C)Cc1ccc(C(=O)N(CCN(C)C)CCN(C)C)c(F)c1 (centres unmarked) |  |  | 64.9 |  |
| CC(C)CCCC(C)CCCC(C)Cc1ccc(C(=O)N(CCN(C)C)CCN(C)C)c2ccccc12 (centres unmarked) |  |  | 59.3 |  |
| CC(C)CCCC(C)CCCC(C)Cc1cccc2c(C(=O)N(CCN(C)C)CCN(C)C)cccc12 (centres unmarked) |  |  | 58.3 |  |
| CC(C)CCCC(C)CCCC(C)Cc1ccc(C(=O)N(CCN(C)C)CCN(C)C)c2c1CCCC2 (centres unmarked) |  |  | 50.5 |  |
| CC(C)=CCC/C(C)=C/CC/C(C)=C/CC/C(C)=C/CNC(=O)CN(C)C |  |  | 60.4 |  |
| CC(C)=CCC/C(C)=C/CC/C(C)=C/CC/C(C)=C/CNC(=O)CCN |  |  | 59.1 |  |
| CC(C)=CCC/C(C)=C/CC/C(C)=C/CC/C(C)=C/CNCCN(C)C |  |  | 37.1 |  |
| CC(C)=CCC/C(C)=C/CC/C(C)=C/CC/C(C)=C/C(=O)NCCN(C)C |  |  | 74.3 |  |
| CC(C)=CCC/C(C)=C/CC/C(C)=C/CC/C(C)=C/C(=O)N(CCN(C)C)CCN(C)C |  |  | 88.7 | 76.4 |
| CC(C)=CCC/C(C)=C/CC/C(C)=C/c1ccc(C(=O)NCCN(C)C)cc1 |  |  | 73.5 | 34.2 |
| CC(C)CCCC(C)CCCC(C)Cc1ccc(C(=O)NCCN(C)C)cc1 (centres unmarked) |  |  | 80.6 | 70.3 |
| CC(C)=CCC/C(C)=C/CC/C(C)=C/c1ccc(C(=O)N(CCN(C)C)CCN(C)C)cc1 |  |  | 93.6 | 70.6 |
| CC(C)CCCC(C)CCCC(C)Cc1ccc(C(=O)N(CCN(C)C)CCN(C)C)cc1 (centres unmarked) |  |  | 74.7 | 78.8 |

Reference: patent publication US4742058A, “Polyprenyl compound, process for the production thereof and drug containing the same” (Eisai Co., Ltd., priority 1982, dated 1988)
